Test results from PubChem BioAssay (NCI).
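Compound exposure: 48 hours, 5 concentrations, 96-well plates. GI50 = concentration required for 50% inhibition of growth. TGI marks complete inhibition of growth.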 Where a SMILES comes first, the peptide text is derived from it. The star is where a group is joined. Cbz = O=C(OCc1ccccc1)*; Bn = c1ccc(C*)cc1

What was measured:
Test in all cases: growth of human tumour cells (NCI), 48 h
[1] = system: SF-268 CNS
[2] = system: IGROV1 ovarian
[3] = system: KM12 colon
[4] = system: A498 renal
[5] = system: HCT-116 colon
[6] = system: RPMI-8226 leukemia
[7] = system: DU-145 prostate
[8] = system: PC-3 prostate
[9] = system: MDA-MB-435
[10] = system: COLO 205 colon
[11] = system: CAKI-1 renal

| SMILES | TGI [1] [µM] | TGI [2] [µM] | TGI [3] [µM] | TGI [4] [µM] | TGI [5] [µM] | TGI [6] [µM] | GI50 [7] [µM] | TGI [7] [µM] | GI50 [3] [µM] | GI50 [4] [µM] | GI50 [8] [µM] | TGI [8] [µM] | GI50 [6] [µM] | GI50 [9] [µM] | TGI [9] [µM] | TGI [10] [µM] | TGI [11] [µM] |
| --- | --- | --- | --- | --- | --- | --- | --- | --- | --- | --- | --- | --- | --- | --- | --- | --- | --- |
| C=CCOCCC(CC=C)C(=O)CC(=O)OC (stereo not drawn) | > 100 | > 100 | > 100 | > 100 | > 100 | > 100 |  |  |  |  |  |  |  |  |  |  |  |
| c1ccc(-c2n(Cc3ccc4ccccc4c3)c3ccccc3[n+]2Cc2ccc3ccccc3c2)cc1 |  |  | 1.2 | 0.933 |  | 1.47 | 0.441 | 1.64 | 0.321 | < 0.043 | 0.27 | 1.13 | 0.208 | 0.288 | 1.06 |  |  |
| CCn1c(=O)c(C(=O)O)c(Cl)c2cc3c(cc21)OCO3 | > 100 | > 100 | > 100 | > 100 | > 100 | > 100 |  |  |  |  |  |  |  |  |  | > 100 | > 100 |
| O=C(Nc1ccc(Cl)cc1)c1cc([N+](=O)[O-])ccc1O | 47.7 | 69.5 | 24.5 | 11.2 | 20.8 | 10.2 |  |  |  |  |  |  |  |  |  | 12.6 | 24.4 |
| O=CC1C(Cl)=Nc2nc3ccccc3n2C1c1ccccc1 (stereo not drawn) | 37.2 | 43.8 | 51.4 | 23 | 70.5 | 43.8 |  | 31.4 |  |  |  | 40.7 |  |  | > 100 | 58.9 | 46.6 |
| Nc1nc(Cl)c2ncn(Cc3cccc(CCl)c3)c2n1 | 18.9 | 12.3 | 16 | 50.8 | 4.05 | 9.81 |  | 18.6 |  |  |  | 26.4 |  |  | 29 | 30.1 | 5.37 |
| COC(=O)C(Cc1ccc(O)cc1)NC(=O)C(COCc1ccccc1)NC(=O)OCc1ccccc1 (stereo not drawn) (Cbz-Ser(Bn)-Tyr-OMe; configuration not given here) | 31.9 | 32.3 | 35 | 58 | 35.7 | > 100 |  | 31.8 |  |  |  | 33.3 |  |  | 34.1 | 31.1 | 36.4 |
| C1CSCCSCSCCS1 | > 100 | > 100 | > 100 | > 100 | > 100 |  |  | > 100 |  |  |  | > 100 |  |  | > 100 | > 100 | > 100 |
| O=C1c2cccc(O)c2C(=O)c2c(O)cccc21 | > 100 | > 100 | > 100 | > 100 | > 100 | > 100 |  |  |  |  |  |  |  |  |  | > 100 | > 100 |
| O=[N+]([O-])c1cc(N=Nc2c(O)ccc3cc(S(=O)(=O)O)ccc23)c(O)c([N+](=O)[O-])c1 | > 100 | > 100 | > 100 |  | > 100 | > 100 |  | > 100 |  |  |  | > 100 |  |  | > 100 | > 100 | > 100 |
| COc1ccc(-c2oc3cc(OC(C)=O)cc(OC(C)=O)c3c(=O)c2OC)cc1 | 46.9 | 38 |  | 61.1 | 44.3 | 38.3 |  | 45.2 |  |  |  | 59 |  |  | 25.4 | 33.9 | 34.9 |
| CC(=O)OCC1OC(NC(=O)N(CCCl)N=O)C(OC(C)=O)C(OC(C)=O)C1OC(C)=O (stereo not drawn) | > 100 | > 100 | > 100 | > 100 | > 100 | > 100 |  |  |  |  |  |  |  |  |  | > 100 | > 100 |
